From patent US20240150293A1, “SPIROCYCLOHEXANE DERIVATIVES, PHARMACEUTICAL COMPOSITIONS CONTAINING THEM AND THEIR USES AS ANTI-APOPTOTIC INHIBITORS” (LES LABORATOIRES SERVIER, priority 2021, published 2024)

Target: Mcl-1 protein (UniProtKB Q07820) (Homo sapiens (Human), UniProt Q07820)
Experiment: Inhibition of Mcl-1 by the fluorescence polarisation assay (Example A, Method A)
Assay type: binding
Settings: fluorescence polarization assay
Summary of the method: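 Protein (5 nM) and fluorescein-tagged peptide tracer (1 nM) incubated with 11-point compound series for 2 h at room temperature in HEPES/NaCl/Tween 20 buffer, pH 7.4, 5% DMSO. Displacement read as decrease in polarisation; IC50 fitted by 4-parameter logistic, converted to Ki (cKi or eKi).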

Chain of Mcl-1 protein (Q07820 whole entry): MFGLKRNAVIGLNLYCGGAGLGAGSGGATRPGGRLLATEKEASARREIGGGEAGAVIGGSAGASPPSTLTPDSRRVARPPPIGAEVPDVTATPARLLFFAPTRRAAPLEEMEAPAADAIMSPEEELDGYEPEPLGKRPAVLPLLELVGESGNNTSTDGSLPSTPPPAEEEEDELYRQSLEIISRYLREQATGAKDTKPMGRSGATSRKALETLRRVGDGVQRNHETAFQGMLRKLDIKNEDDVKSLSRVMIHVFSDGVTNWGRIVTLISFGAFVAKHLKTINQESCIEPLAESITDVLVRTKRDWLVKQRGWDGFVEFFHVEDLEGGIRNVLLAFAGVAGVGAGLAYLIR

Ki	Compound
0.101 µM	O=C(O)[C@]1(Nc2cccc(Cl)c2)CC[C@]2(CC1)C(CCOCc1ccccc1)=Cc1ccccc12 [Example 395, (1r,4r)-2′-[2-(benzyloxy)ethyl]-4-(3-chloroanilino)spiro[cyclohexane-1,1′-indene]-4-carboxylic acid]
5.27 µM	COc1ccc(C)c(C2=Cc3ccccc3[C@]23CC[C@@](Nc2cccc(Cl)c2)(C(=O)O)CC3)c1 [Example 252, (1s,4s)-4-(3-chloroanilino)-2′-(5-methoxy-2-methylphenyl)spiro[cyclohexane-1,1′-indene]-4-carboxylic acid]
0.141 µM	O=C(O)[C@]1(Nc2cccc(Br)c2)CC[C@]2(CC1)C(CCCOc1ccnc3ccsc13)=Cc1ccccc12 [Example 454, (1r,4r)-4-(3-bromoanilino)-2′-{3-[(thieno[3,2-b]pyridin-7-yl)oxy]propyl}spiro[cyclohexane-1,1′-indene]-4-carboxylic acid]
0.0959 µM	O=C(O)[C@]1(Nc2cccc(Cl)c2)CC[C@]2(CC1)C(CCCOc1ccccc1)=Cc1ccccc12 [Example 422, (1r,4r)-4-(3-chloroanilino)-2′-(3-phenoxypropyl)spiro[cyclohexane-1,1′-indene]-4-carboxylic acid]
11.1 µM	COc1ccc(C2Cc3ccccc3[C@]23CC[C@@](Nc2cccc(Cl)c2)(C(=O)O)CC3)c(Cl)c1 (single isomer, unassigned) [Example 269, (1r,4r)-4-(3-chloroanilino)-2′-(2-chloro-4-methoxyphenyl)-2′,3′-dihydrospiro[cyclohexane-1,1′-indene]-4-carboxylic acid]
3.21 µM	COc1cccc(N2Cc3ccccc3[C@]23CC[C@@](Nc2cccc(Br)c2)(C(=O)O)CC3)c1 [Example 32, (1s,4s)-4-(3-bromoanilino)-2′-(3-methoxyphenyl)-2′,3′-dihydrospiro[cyclohexane-1,1′-isoindole]-4-carboxylic acid]
5.2 µM	O=C(O)C1(Nc2cccc(Br)c2)CCC2(CC1)C(=O)N1CCCc3cc(Br)cc2c31 (single isomer, unassigned) [Example 14, 8′-bromo-4-(3-bromoanilino)-2′-oxo-5′,6′-dihydro-2′H,4′H-spiro[cyclohexane-1,1′-pyrrolo[3,2,1-ij]quinoline]-4-carboxylic acid]
7.31 µM	O=C(O)[C@]1(Nc2cccc(Cl)c2)CC[C@]2(CC1)C(=C1CCCC1)Cc1ccccc12 [Example 93, (1r,4r)-4-(3-chloroanilino)-2′-cyclopentylidene-2′,3′-dihydrospiro[cyclohexane-1,1′-indene]-4-carboxylic acid]
8.21 µM	CN(CCc1ccncc1)C(=O)C1=Cc2ccccc2[C@]12CC[C@@](Nc1cccc(Cl)c1)(C(=O)O)CC2 [Example 403, (1s,4s)-4-(3-chloroanilino)-2′-{methyl[2-(pyridin-4-yl)ethyl]carbamoyl}spiro[cyclohexane-1,1′-indene]-4-carboxylic acid]
12.8 µM	O=C(O)C1(Nc2cccc(Br)c2)CCC2(CC1)CNc1ccccc12 (centres unmarked) [Example 3, 4-(3-bromoanilino)-1′,2′-dihydrospiro[cyclohexane-1,3′-indole]-4-carboxylic acid]
0.921 µM	O=C(O)[C@]1(Nc2cccc(Cl)c2)CC[C@]2(CC1)C(c1cccc3occc13)=Cc1ccccc12 [Example 340, (1s,4s)-2′-(1-benzofuran-4-yl)-4-(3-chloroanilino)spiro[cyclohexane-1,1′-indene]-4-carboxylic acid]
0.522 µM	O=C(O)[C@]1(Nc2cccc(Cl)c2)CC[C@]2(CC1)C(COCCc1cccc(Cl)c1)=Cc1ccccc12 [Example 417, (1s,4s)-4-(3-chloroanilino)-2′-{[2-(3-chlorophenyl)ethoxy]methyl}spiro[cyclohexane-1,1′-indene]-4-carboxylic acid]
0.559 µM	O=C(O)[C@]1(Nc2cccc(Cl)c2)CC[C@]2(CC1)C(c1ccccc1Cl)=Cc1ccccc12 [Example 311, (1s,4s)-4-(3-chloroanilino)-2′-(2-chlorophenyl)spiro[cyclohexane-1,1′-indene]-4-carboxylic acid]
0.261 µM	CC1=Cc2ccccc2[C@]12CC[C@@](Nc1cccc(Br)c1)(C(=O)O)CC2 [Example 142, (1r,4r)-4-(3-bromoanilino)-2′-methylspiro[cyclohexane-1,1′-indene]-4-carboxylic acid]
0.925 µM	O=C(O)[C@]1(Nc2cccc(Cl)c2)CC[C@@]2(CC1)c1ccccc1CC2c1ccc2c(c1)OCC2 (single isomer, unassigned) [Example 287, (1r,4r)-4-(3-chloroanilino)-2′-(2,3-dihydro-1-benzofuran-6-yl)-2′,3′-dihydrospiro[cyclohexane-1,1′-indene]-4-carboxylic acid]
0.507 µM	O=C(O)[C@]1(Nc2cccc(Cl)c2)CC[C@@]2(CC1)c1ccccc1CC2CCCC1CCCC1 (some centres unmarked) [Example 153, (1r,4r)-4-(3-chloroanilino)-2′-(3-cyclopentylpropyl)-2′,3′-dihydrospiro[cyclohexane-1,1′-indene]-4-carboxylic acid]

Ki	Compound
0.138 µM	COc1cc(OCCC2Cc3ccccc3[C@]23CC[C@@](Nc2cccc(Cl)c2)(C(=O)O)CC3)ccn1 (some centres unmarked) [Example 174, (1r,4r)-4-(3-chloroanilino)-2′-{2-[(2-methoxypyridin-4-yl)oxy]ethyl}-2′,3′-dihydrospiro[cyclohexane-1,1′-indene]-4-carboxylic acid]
12.1 µM	COc1ccc(N2C(=O)c3ccccc3[C@]23CC[C@@](Nc2cccc(Br)c2)(C(=O)O)CC3)cc1 [Example 33, (1s,4s)-4-(3-bromoanilino)-2′-(4-methoxyphenyl)-3′-oxo-2′,3′-dihydrospiro[cyclohexane-1,1′-isoindole]-4-carboxylic acid]
0.609 µM	O=C(O)[C@]1(Nc2cccc(Cl)c2)CC[C@]2(CC1)C(/C=C/CC1CCCC1)=Cc1ccccc12 [Example 152, (1r,4r)-4-(3-chloroanilino)-2′-[(1E)-3-cyclopentylprop-1-en-1-yl]spiro[cyclohexane-1,1′-indene]-4-carboxylic acid]
2.26 µM	O=C(O)[C@]1(Nc2cccc(Cl)c2)CC[C@]2(CC1)C(c1cc3ccccc3o1)=Cc1ccccc12 [Example 303, (1s,4s)-2′-(1-benzofuran-2-yl)-4-(3-chloroanilino)spiro[cyclohexane-1,1′-indene]-4-carboxylic acid]
0.768 µM	O=C(O)[C@]1(Nc2cccc(Cl)c2)CC[C@]2(CC1)C(CCCCOc1ccccc1)=Cc1ccccc12 [Example 160, (1r,4r)-4-(3-chloroanilino)-2′-(4-phenoxybutyl)spiro[cyclohexane-1,1′-indene]-4-carboxylic acid]
0.995 µM	O=C(O)C1(Nc2cccc(Br)c2)CCC2(CC1)c1ccccc1CC2c1cccc(Cl)c1 (centres unmarked) [Example 221, 4-(3-bromoanilino)-2′-(3-chlorophenyl)-2′,3′-dihydrospiro[cyclohexane-1,1′-indene]-4-carboxylic acid]
0.123 µM	O=C(O)[C@]1(Nc2cccc(Cl)c2)CC[C@@]2(CC1)c1ccccc1CC2CCOc1ccnc2ccsc12 (some centres unmarked) [Example 186, (1r,4r)-4-(3-chloroanilino)-2′-{2-[(thieno[3,2-b]pyridin-7-yl)oxy]ethyl}-2′,3′-dihydrospiro[cyclohexane-1,1′-indene]-4-carboxylic acid]
0.696 µM	O=C(O)C1(Nc2cccc(Br)c2)CCC2(C=Cc3ccccc32)CC1 (single isomer, unassigned) [Example 58, 4-(3-bromoanilino)spiro[cyclohexane-1,1′-indene]-4-carboxylic acid]
0.473 µM	O=C(O)[C@]1(Nc2cccc(Cl)c2)CC[C@]2(CC1)C(COCCc1cccc(F)c1)=Cc1ccccc12 [Example 412, (1s,4s)-4-(3-chloroanilino)-2′-{[2-(3-fluorophenyl)ethoxy]methyl}spiro[cyclohexane-1,1′-indene]-4-carboxylic acid]
4.16 µM	COc1cccc(Cl)c1C1Cc2ccccc2[C@]12CC[C@@](Nc1cccc(Cl)c1)(C(=O)O)CC2 (mixture of isomers) [Example 283, (1r,4r)-4-(3-chloroanilino)-2′-(2-chloro-6-methoxyphenyl)-2′,3′-dihydrospiro[cyclohexane-1,1′-indene]-4-carboxylic acid]
0.598 µM	O=C(O)[C@]1(Nc2cccc(Cl)c2)CC[C@@]2(CC1)c1ccccc1CC2CCCSc1ccccc1 (some centres unmarked) [Example 397, (1r,4r)-4-(3-chloroanilino)-2′-[3-(phenylsulfanyl)propyl]-2′,3′-dihydrospiro[cyclohexane-1,1′-indene]-4-carboxylic acid]
23.1 µM	O=C(O)[C@]1(Nc2cccc(Cl)c2)CC[C@@]2(CC1)C(Br)=Cc1ccccc12 [Example 74, (1r,4r)-2′-bromo-4-(3-chloroanilino)spiro[cyclohexane-1,1′-indene]-4-carboxylic acid]
1.03 µM	O=C(O)[C@]1(Nc2ccccc2)CC[C@]2(CC1)C(CCCOc1ccnc3ccsc13)=Cc1ccccc12 [Example 455, (1r,4r)-4-anilino-2′-{3-[(thieno[3,2-b]pyridin-7-yl)oxy]propyl}spiro[cyclohexane-1,1′-indene]-4-carboxylic acid]
0.234 µM	Cc1nc2c(c(OCCCC3Cc4ccccc4[C@]34CC[C@@](Nc3cccc(Cl)c3)(C(=O)O)CC4)n1)C(C)CC2 (some centres unmarked) [Example 468, (1r,4r)-4-(3-chloroanilino)-2′-{3-[(2,5-dimethyl-6,7-dihydro-5H-cyclopenta[d]pyrimidin-4-yl)oxy]propyl}-2′,3′-dihydrospiro[cyclohexane-1,1′-indene]-4-carboxylic acid]
0.259 µM	COc1cccc(C2=Cc3ccccc3[C@]23CC[C@@](Nc2cccc(Cl)c2)(C(=O)O)CC3)c1Cl [Example 267, (1s,4s)-4-(3-chloroanilino)-2′-(2-chloro-3-methoxyphenyl)spiro[cyclohexane-1,1′-indene]-4-carboxylic acid]
8.45 µM	O=C(O)[C@]1(Nc2cccc(Cl)c2)CC[C@@]2(CC1)c1ccccc1CC2[C@H]1C[C@@H]1COc1ccccc1 (relative stereo) [Example 110, (1r,4r)-4-(3-chloroanilino)-2′-[(1R*,2S*)-2-(phenoxymethyl)cyclopropyl]-2′,3′-dihydrospiro[cyclohexane-1,1′-indene]-4-carboxylic acid]
